# Key:
# bamyardgrass = assay: Test B flood test barnyardgrass; type: in vivo, Echinochloa crus-galli
# Method in brief: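 Read-out is a visual response score from 0 (no effect) to 10 (complete control), assigned by comparison with untreated controls. Treatment was applied at the 2-leaf stage, and plants stayed in the greenhouse for twelve to sixteen days before scoring.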
# wild oat = assay: Test E wild oat; type: in vivo, Avena fatua; settings: Preemergence
# winter wheat [1] = assay: Test E winter wheat; type: in vivo, Triticum aestivum; settings: Postemergence; for Wheat (winter) plant response rating: Rate 250 g/ha
# Method in brief: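 Compound formulated with surfactant in a non-phytotoxic solvent (postemergence: young 1- to 4-leaf plants); held in greenhouse approx. 21–28 days; visual assessment against untreated plants.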
# blackgrass [2] = assay: Test B pre/postemergence blackgrass; type: in vivo, Alopecurus myosuroides
# Method in brief: (§1)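 Test chemicals in a non-phytotoxic solvent mixture with surfactant were sprayed preemergence onto planted seeds and postemergence onto plants 2 to 18 cm tall (1- to 4-leaf stage). After twelve to sixteen days in a greenhouse, injury was visually rated against untreated controls from 0 (no effect) to 10 (complete control).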
# winter wheat [3] = assay: Test E winter wheat; type: in vivo, Triticum aestivum; settings: Preemergence
# blackgrass [4] = assay: Test E blackgrass; type: in vivo, Alopecurus myosuroides; settings: Preemergence
# Italian ryegrass = assay: Test E Italian ryegrass; type: in vivo, Lolium multiflorum; settings: Preemergence
# green foxtail = assay: Test E green foxtail; type: in vivo, Setaria viridis; settings: Preemergence
# surinam grass = assay: Test B pre/postemergence surinam grass; type: in vivo, Brachiaria decumbens
# Method in brief: as §1
# winter barley = assay: Test E winter barley; type: in vivo, Hordeum vulgare; settings: Preemergence
# bedstraw = assay: Test B pre/postemergence bedstraw; type: in vivo, Galium aparine
# Method in brief: as §1
# [5] = Rate 62 g/ha, headed Pre-emergence (flood test species), scale 0 to 10 (0 no effect, 10 complete control)
# [6] = Rate 125 g/ha, Pre-emergence, flood test species, scale 0 to 10 where 0 is no effect and 10 is complete control
# [7] = Rate 250 g/ha, Pre-emergence, flood-test species, scale 0 to 10, 0 is no effect, 10 is complete control
# [8] = Rate 125 g/ha, 0 to 100 scale (0 no effect, 100 complete control)
# [9] = Rate 500 g/ha, 0 to 100 scale (0 no effect, 100 complete control)
# [10] = Rate 1000 g/ha, 0 to 100 scale, 0 no effect, 100 complete control
# [11] = Rate 1000 g/ha, 0 to 100 scale where 0 is no effect and 100 is complete control
# [12] = 0 to 100 scale where 0 is no effect and 100 is complete control
# [13] = Rate 500 g/ha, 0 to 100 scale, 0 is no effect, 100 is complete control
# [14] = Preemergence, Rate 31 g/ha, visual rating, scale 0 to 10 (0 no effect, 10 complete control)
# [15] = Preemergence, Rate 62 g/ha, scale of 0 to 10 where 0 is no effect and 10 is complete control
# [16] = Preemergence, Rate 250 g/ha, scale of 0 to 10 where 0 is no effect and 10 is complete control
# [17] = Rate 31 g/ha, Postemergence, scale 0 to 10
# [18] = Rate 62 g/ha, Postemergence, scale 0 to 10, 0 no effect, 10 complete control
# [19] = Rate 125 g/ha, Postemergence, scale of 0 to 10 where 0 is no effect and 10 is complete control
# [20] = Rate 125 g/ha, Preemergence, scale of 0 to 10 where 0 is no effect and 10 is complete control
# [21] = Rate 250 g/ha, Postemergence, scale of 0 to 10 where 0 is no effect and 10 is complete control
# [22] = Rate 500 g/ha, 0 to 100 scale where 0 is no effect and 100 is complete control
# [23] = Preemergence, Rate 500 g/ha, scale of 0 to 10 where 0 is no effect and 10 is complete control
# [24] = Rate 62 g/ha, Postemergence, scale of 0 to 10 where 0 is no effect and 10 is complete control
# [25] = Rate 500 g/ha, Postemergence, scale 0 to 10, 0 no effect, 10 complete control
smiles,measurement,setting,value
CC(Cl)=CCn1c(=O)on(C(=O)N(c2ccc(F)cc2)C(C)C)c1=O [Compound 285],Barnyardgrass plant response rating,"bamyardgrass; Rate 31 g/ha, Pre-emergence section (flood test species), scale 0 to 10",0
same,Barnyardgrass plant response rating,bamyardgrass; [5],0
same,Barnyardgrass plant response rating,bamyardgrass; [6],0
same,Barnyardgrass plant response rating,bamyardgrass; [7],7
same,"Plant response rating, Wild oat",wild oat; [8],10
same,"Plant response rating, Wild oat",wild oat; [9],20
same,"Plant response rating, Wild oat",wild oat; [10],40
same,"Plant response rating, Wheat (winter)","winter wheat [1]; Rate 125 g/ha, 0 to 100 scale, 0 is no effect, 100 is complete control",20
same,"Plant response rating, Wheat (winter)",winter wheat [1]; [11],30
same,Wheat (winter) plant response rating,winter wheat [1]; [12],20
same,"Plant response rating, Wheat (winter)",winter wheat [1]; [13],40
same,Blackgrass plant response rating,blackgrass [2]; [14],0
same,Blackgrass plant response rating,blackgrass [2]; [15],0
same,Blackgrass plant response rating,blackgrass [2]; [16],5
same,Blackgrass plant response rating,blackgrass [2]; [17],0
same,Blackgrass plant response rating,blackgrass [2]; [18],0
same,Blackgrass plant response rating,blackgrass [2]; [19],2
same,Blackgrass plant response rating,blackgrass [2]; [20],4
same,"Plant response rating, Blackgrass",blackgrass [2]; [21],7
same,"Plant response rating, Wheat (winter)",winter wheat [3]; [8],30
same,"Plant response rating, Wheat (winter)",winter wheat [3]; [9],25
same,"Plant response rating, Wheat (winter)",winter wheat [3]; [10],50
same,"Plant response rating, Blackgrass",blackgrass [4]; [8],20
same,"Plant response rating, Blackgrass",blackgrass [4]; [9],55
same,"Plant response rating, Blackgrass",blackgrass [4]; [10],70
same,"Plant response rating, I. Ryegrass",Italian ryegrass; [8],20
same,"Plant response rating, I. Ryegrass",Italian ryegrass; [9],70
same,"Plant response rating, I. Ryegrass",Italian ryegrass; [10],70
same,"Plant response rating, Green foxtail",green foxtail; [8],20
same,"Plant response rating, Green foxtail",green foxtail; [9],60
same,"Plant response rating, Green foxtail",green foxtail; [10],65
same,B. signalgrass plant response rating,surinam grass; [14],0
same,B. signalgrass plant response rating,surinam grass; [15],2
same,B. signalgrass plant response rating,surinam grass; [16],10
same,B. signalgrass plant response rating,surinam grass; [17],0
same,B. signalgrass plant response rating,surinam grass; [18],0
same,B. signalgrass plant response rating,surinam grass; [19],0
same,B. signalgrass plant response rating,surinam grass; [20],5
same,"Plant response rating, B. signalgrass",surinam grass; [21],0
same,"Plant response rating, Barley (winter)",winter barley; [8],0
same,"Plant response rating, Barley (winter)",winter barley; [9],10
same,"Plant response rating, Barley (winter)",winter barley; [10],20
same,Bedstraw plant response rating,bedstraw; [14],0
same,Bedstraw plant response rating,bedstraw; [15],0
same,Bedstraw plant response rating,bedstraw; [16],8
same,Bedstraw plant response rating,bedstraw; [17],0
same,Bedstraw plant response rating,bedstraw; [18],0
same,Bedstraw plant response rating,bedstraw; [19],5
same,Bedstraw plant response rating,bedstraw; [20],0
same,"Plant response rating, Bedstraw",bedstraw; [21],7
CCN(C(=O)n1oc(=O)n(N(C)C)c1=O)C1CCCCC1 [Compound 274],Barnyardgrass plant response rating,"bamyardgrass; Pre-emergence, Rate 1000 g/ha, scale 0 to 10 (0 no effect, 10 complete control)",0
same,Barnyardgrass plant response rating,bamyardgrass; [5],0
same,Barnyardgrass plant response rating,bamyardgrass; [6],0
same,Barnyardgrass plant response rating,bamyardgrass; [7],0
same,Barnyardgrass plant response rating,"bamyardgrass; Rate 500 g/ha, Pre-emergence, flood test species, scale 0 to 10 (0 no effect, 10 complete control)",0
same,Barnyardgrass plant response rating,"bamyardgrass; Rate 2000 g/ha, Pre-emergence (as headed), scale 0 to 10, 0 no effect, 10 complete control",0
same,Wild oat plant response rating (0 to 100 scale),wild oat; Rate 250 g/ha,40
same,"Plant response rating, Wild oat",wild oat; [22],50
same,"Plant response rating, Wild oat",wild oat; [10],60
same,"Plant response rating, Wheat (winter)",winter wheat [1]; [11],60
same,Wheat (winter) plant response rating,winter wheat [1]; [12],30
same,"Plant response rating, Wheat (winter)",winter wheat [1]; [13],50
same,Blackgrass plant response rating,blackgrass [2]; [15],0
same,Blackgrass plant response rating,blackgrass [2]; [16],0
same,"Plant response rating, Blackgrass",blackgrass [2]; [23],0
same,Blackgrass plant response rating,blackgrass [2]; [24],0
same,Blackgrass plant response rating,blackgrass [2]; [19],0
same,Blackgrass plant response rating,blackgrass [2]; [20],0
same,"Plant response rating, Blackgrass",blackgrass [2]; [21],0
same,Blackgrass plant response rating,blackgrass [2]; [25],0
same,Wheat (winter) plant response rating (0 to 100 scale),winter wheat [3]; Rate 250 g/ha,30
same,"Plant response rating, Wheat (winter)",winter wheat [3]; [22],50
same,"Plant response rating, Wheat (winter)",winter wheat [3]; [10],50
same,Blackgrass plant response rating (0 to 100 scale),blackgrass [4]; Rate 250 g/ha,0
same,"Plant response rating, Blackgrass",blackgrass [4]; [22],30
same,"Plant response rating, Blackgrass",blackgrass [4]; [10],65
same,I. Ryegrass plant response rating (0 to 100 scale),Italian ryegrass; Rate 250 g/ha,20
same,"Plant response rating, I. Ryegrass",Italian ryegrass; [22],30
same,"Plant response rating, I. Ryegrass",Italian ryegrass; [10],50
same,Green foxtail plant response rating (0 to 100 scale),green foxtail; Rate 250 g/ha,20
same,"Plant response rating, Green foxtail",green foxtail; [22],30
same,"Plant response rating, Green foxtail",green foxtail; [10],40
same,B. signalgrass plant response rating,surinam grass; [15],0
same,B. signalgrass plant response rating,surinam grass; [16],0
same,"Plant response rating, B. signalgrass",surinam grass; [23],0
same,B. signalgrass plant response rating,surinam grass; [24],0
same,B. signalgrass plant response rating,surinam grass; [19],0
same,B. signalgrass plant response rating,surinam grass; [20],0
same,"Plant response rating, B. signalgrass",surinam grass; [21],0
same,B. signalgrass plant response rating,surinam grass; [25],0
same,Barley (winter) plant response rating (0 to 100 scale),winter barley; Rate 250 g/ha,50
same,"Plant response rating, Barley (winter)",winter barley; [22],60
same,"Plant response rating, Barley (winter)",winter barley; [10],55
same,Bedstraw plant response rating,bedstraw; [15],0
same,Bedstraw plant response rating,bedstraw; [16],0
same,"Plant response rating, Bedstraw",bedstraw; [23],0
same,Bedstraw plant response rating,bedstraw; [24],0
same,Bedstraw plant response rating,bedstraw; [19],0
same,Bedstraw plant response rating,bedstraw; [20],0
same,"Plant response rating, Bedstraw",bedstraw; [21],0
same,Bedstraw plant response rating,bedstraw; [25],0

# From patent US6737383B1, “Herbicidal oxadiazolidines” (priority 1999, dated 2004)
